In experiment [1] the test system is Mouse macrophages (RAW264.7). Put plainly: Toxicity to macrophages by MTT method. Type of experiment: cell-based. The settings on record: RAW264.7, MTT, 48 h culture with compound. The procedure:
(1) the Toxicity to Macrophages was Tested by MTT Method:
Mouse macrophages (RAW264.7) were taken, inoculated into 96-well plates ([…]) at a concentration of 3×10^4/mL and cultured in an incubator of 5% CO2 at 37° C. for 18 h. After the cells adhered to the wall, the supernate was discarded and compounds of different concentrations were added to continue the culture for 48 h. 0.5 mg/mL of MTT was added. After continued culture for 4 h, […] of DMSO was added to each well, and then shaken on a shaker for 10 min. Absorbance (OD value) at 570 nm was measured by a microplate reader, and IC50 was calculated by Prism software.
On the technique in general: Formazan colour is commonly taken as a measure of viable cells.

The test system of experiment [2] is LPS-induced NO production in macrophages (RAW264.7). Nature of the experiment: Inhibition of LPS-induced NO production in macrophages. Type of experiment: cell-based, mouse. Details: dose or concentration left out as unconfirmed. The following applies: LPS-induced RAW264.7, 24 h. How it is done: In this test example, the styrene derivatives prepared by embodiments 2-20 were tested for their toxicities to mouse macrophages (RAW264.7). The nitric oxide (NO) inhibition assays using lipopolysaccharide (LPS)-induced RAW264.7 cells were also performed to evaluate their anti-inflammatory activities (Test methods refer to Zhou W. et al. Biomed Pharmacother 2020, 131:110696.).
(2) Inhibition of LPS-Induced NO Production Activity in Macrophages was Tested (the Test Method Refers to Biomed Pharmacother. 2020 November; 131:110696):
Mouse macrophages (RAW264.7) were taken, inoculated into 96-well plates ([…]) at a concentration of 5×10^5/mL and cultured in a 5% CO2 incubator at 37° C. for 18 h. Then, the compound (final concentration: […]) and LPS (final concentration: 5 µg/mL) were added into a cell culture solution and cultured at 37° C. for 24 h. Then, the supernatant of the cell culture solution was taken and placed into a new 96-well plate by 50 µL per well; and then 50 µL of solution A and 50 µL of solution B of a Beyotime NO kit were added.
After culturing in the incubator at 37° C. for 10 min, the absorbance (OD value) at 540 nm was tested.

Each structure is given as a SMILES string.

Regarding `CC(C)c1c(O)cc(/C=C/c2ccoc2)cc1O` [No 2], the IC50 in experiment [1] (Mus musculus) was > 1000 nM. Also, the “Inhibitory activity against nitric oxide production (%)” value (“Inhibitory activity … (%)” for short) in experiment [2] is <50%.
As to `CC(C)c1c(O)cc(/C=C/c2cncs2)cc1O` [No 3], the IC50 in experiment [1] (Mus musculus) is > 1000 nM. The “Inhibitory activity … (%)” value in experiment [2] is given as >50%.
On to `CC(C)c1c(O)cc(/C=C/c2cscn2)cc1O` [No 4], for which the IC50 in experiment [1] (Mus musculus) is > 1000 nM. For the same compound, the “Inhibitory activity … (%)” value in experiment [2] was <50%.
Consider `Oc1cc(/C=C/c2ccsc2)cc(O)c1C1CC1` [No 5], for which the IC50 in experiment [1] (Mus musculus) was > 1000 nM. Further, in experiment [2], the “Inhibitory activity … (%)” value is <50%.
As for `Oc1cc(/C=C/c2ccoc2)cc(O)c1C1CC1` [No 6], in experiment [1] (Mus musculus), the IC50 was > 1000 nM. The “Inhibitory activity … (%)” value in experiment [2] was <50%.
For the compound `Oc1cc(/C=C/c2ccsc2)cc(O)c1C1=CCCC1` [No 7], the IC50 in experiment [1] (Mus musculus) was > 1000 nM. Moreover, the “Inhibitory activity … (%)” value in experiment [2] is listed as <50%.
Consider `Oc1cc(/C=C/c2cscn2)cc(O)c1C1=CCCC1` [No 9], for which the IC50 in experiment [1] is > 1000 nM. In addition, the “Inhibitory activity … (%)” value in experiment [2] is given as <50%.
Take `Oc1cc(/C=C/c2cncs2)cc(O)c1C1=CCCC1` [No 10]: in experiment [1], the IC50 was > 1000 nM. The “Inhibitory activity … (%)” value in experiment [2] is <50%.
Consider `Oc1cc(/C=C/c2ccsc2)cc(O)c1C1CCCC1` [No 11], for which the IC50 in experiment [1] (Mus musculus) is > 1000 nM. Further, the “Inhibitory activity … (%)” value in experiment [2] was <50%.
With `Oc1cc(/C=C/c2cscn2)cc(O)c1C1CCCC1` [No 12], in experiment [1] (Mus musculus), the IC50 is > 1000 nM. Further, in experiment [2], the “Inhibitory activity … (%)” value was <50%.
Consider `Oc1cc(/C=C/c2ccoc2)cc(O)c1Br` [No 13], for which the IC50 in experiment [1] (Mus musculus) is > 1000 nM. For the same compound, the “Inhibitory activity … (%)” value in experiment [2] was <50%.
The corresponding values for `C=C(C)c1c(O)cc(/C=C/c2cscn2)cc1O` [No 16] are > 1000 nM and <50%.
As to `C=C(C)c1c(O)cc(/C=C/c2cncs2)cc1O` [No 17], the IC50 in experiment [1] (Mus musculus) was > 1000 nM. In addition, the “Inhibitory activity … (%)” value in experiment [2] is listed as <50%.
For `COc1cc(/C=C/c2ccsc2)cc(O)c1C1CC1` [No 18], in that order: > 1000 nM and >50%.
`COc1cc(/C=C/c2ccsc2)cc(O)c1Br` [No 19]: the IC50 in experiment [1] (Mus musculus) was > 1000 nM. Besides, the “Inhibitory activity … (%)” value in experiment [2] was >50%.
In the case of `COc1cc(/C=C/c2ccoc2)cc(O)c1C(C)C` [No 20], the IC50 in experiment [1] was > 1000 nM. Also, the “Inhibitory activity … (%)” value in experiment [2] is given as >50%.

As a reminder, the IC50 is the concentration at which inhibition is half-maximal.
